# Reference: ChEMBL document CHEMBL1141367, “Substituted 2-[(4-aminomethyl)phenoxy]-2-methylpropionic acid PPARalpha agonists. 1. Discovery of a novel series of potent HDLc raising agents” (J Med Chem, 2007)
# Columns and labels:
# Mus musculus [1] = assay: Decrease in plasma TG level in human Apo-A-I transgenic C57BL/6 mouse at 1 mg/kg, po; format: functional; parameters: scale not given: the % may be the effect or the level left
# Mus musculus [2] = assay: Decrease in VLDL cholesterol in human Apo-A-I transgenic C57BL/6 mouse at 5 mg/kg, po; format: functional; parameters: scale not given: the % may be the effect or the level left
# Mus musculus [3] = assay: Decrease in plasma TG level in human Apo-A-I transgenic C57BL/6 mouse at 5 mg/kg, po; format: functional; parameters: scale not given: the % may be the effect or the level left
# Mus musculus [4] = assay: Decrease in VLDL cholesterol in human Apo-A-I transgenic C57BL/6 mouse at 0.5 mg/kg, po; format: functional; parameters: scale not given: the % may be the effect or the level left
# [5] = Volume of distribution in Beagle dog at 2 mg/kg, iv; format: ADME, organism-based, Canis lupus familiaris; parameters: dose 2 mg/kg, route intravenous; settings: in vivo, read-out: Vdss
# Canis familiaris = assay: Plasma concentration in Beagle dog at 3 mg/kg, po; format: ADME, organism-based, Canis lupus familiaris; parameters: dose 3 mg/kg, route oral; settings: in vivo
# [6] = Bioavailability in Wistar rat at 3 mg/kg, po; format: ADME, organism-based; settings: in vivo
# Mus musculus [7] = assay: Increase in HDL cholesterol level in human Apo-A-I transgenic C57BL/6 mouse at 0.5 mg/kg, po; format: functional
# [8] = Volume of distribution in Wistar rat at 2.7 mg/kg, iv; format: ADME, organism-based; parameters: dose 2.7 mg/kg, route intravenous; settings: in vivo, read-out: Vdss
# [9] = Bioavailability in Beagle dog at 3 mg/kg, po; format: ADME, organism-based, Canis lupus familiaris; settings: in vivo
# Mus musculus [10] = assay: Increase in HDL cholesterol level in human Apo-A-I transgenic C57BL/6 mouse at 5 mg/kg, po; format: functional
# Mus musculus [11] = assay: Increase in HDL cholesterol level in human Apo-A-I transgenic C57BL/6 mouse at 1 mg/kg, po; format: functional
# [12] = target: T1, Peroxisome proliferator-activated receptor alpha (Mus musculus, UniProt P23204)
# T1 sequence (P23204 whole entry): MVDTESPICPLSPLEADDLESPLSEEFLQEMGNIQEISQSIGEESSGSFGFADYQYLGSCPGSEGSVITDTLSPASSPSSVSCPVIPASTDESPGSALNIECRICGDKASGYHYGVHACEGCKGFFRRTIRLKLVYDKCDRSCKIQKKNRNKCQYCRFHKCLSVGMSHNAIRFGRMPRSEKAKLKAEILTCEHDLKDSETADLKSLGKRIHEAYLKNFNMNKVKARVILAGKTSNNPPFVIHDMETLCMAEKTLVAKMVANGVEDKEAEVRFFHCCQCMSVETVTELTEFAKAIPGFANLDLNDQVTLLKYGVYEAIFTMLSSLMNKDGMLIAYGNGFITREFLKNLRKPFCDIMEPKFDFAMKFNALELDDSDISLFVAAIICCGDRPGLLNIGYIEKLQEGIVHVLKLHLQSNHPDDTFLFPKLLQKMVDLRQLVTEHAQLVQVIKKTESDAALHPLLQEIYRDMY
# Description: Agonist potency at mouse PPARalpha
structure (smiles),measurement,setting,value
Cc1nc(-c2ccc(C(F)(F)F)cc2)sc1C(=O)NCc1ccc(OC(C)(C)C(=O)O)cc1 [GW590735],Activity,Mus musculus [1],48%
same,Activity,Mus musculus [2],86%
same,Activity,Mus musculus [3],65%
same,Activity,Mus musculus [4],48%
same,Vd,[5],2.8 L/kg
same,Cp,Canis familiaris,1449 ng/mL
same,bioavailability,[6],47%
same,Activity,Mus musculus [7],43%
same,Vd,[8],1 L/kg
same,bioavailability,[9],85%
same,Activity,Mus musculus [10],86%
same,Activity,Mus musculus [11],51%
same,EC50,[12],15 nM
